# Measured values: patent publication US20250009737A1, “COMPOUNDS AND METHODS FOR THE TARGETED DEGRADATION OF ANDROGEN RECEPTOR” (Arvinas Operations, Inc., priority 2023, published 2025)
# Where two headings read alike, the source gives them in different places.
# Assays:
# Type in all cases: in vitro ADME
# Pgp = Pgp (Homo sapiens, UniProt P08183); assay: Pgp inhibition, bidirectional transport in Pgp-expressed MDCKII monolayers; set-up: expressed in transfected cells; host or cells: MDCKII
# Experimental: (§1) In addition, the inhibition potential against efflux transporters (P-glycoprotein (Pgp) and breast cancer resistance protein (BCRP)) and uptake transporters (MATE1, MATE2-K, OATP1B1, OATP1B3, OAT1, OAT3, and OCT2) was assessed using single transporter over-expressed cell monolayers (MDCK II or HEK293) or inside-out vesicles.
# (§2) The potential of Compound A to inhibit Pgp or BCRP was tested for bidirectional transport of the probe substrates in Pgp or BCRP-expressed MDCKII and control monolayers at Compound A concentrations of 0.07-5 μM. Pgp and BCR inhibition were tested in inside-out membrane vesicles prepared from HEK293 overexpressing human Pgp and BCR at concentrations of 0.01-9 μM Compound A in the presence of 4 mM MgATP or MgAMP.
# CYP3A4 mRNA = CYP3A4 mRNA induction in cryopreserved human hepatocytes; details: for CYP3A4 mRNA induction, % PC: % of positive control response; for CYP3A4 mRNA Fold induction: human hepatocytes, maximal
# [1] = Metabolite profiling / stability in human plasma
# Experimental: (§3) Metabolite profiling was conducted in incubations of Compound A (2 and 10 μM) with HLM (up to 60 min), human hepatocyte suspension (up to 240 min) and human plasma (up to 360 min). In addition, Compound A (2 μM) was incubated with recombinant human CYP enzymes CYP1A2, CYP2A6, CYP2B6, CYP2C8, CYP2C9, CYP2C19, CYP2D6, CYP2E1, CYP3A4 and CYP3A5.
# [2] = Metabolite profiling using human plasma, HLM and human hepatocytes; details: human plasma
# Experimental: as §3
# CYP2C19 mRNA = CYP2C19 mRNA induction in cryopreserved human hepatocytes; details: 48 hours
# CYP1A2 = target: T1, CYP1A2 (Homo sapiens, UniProt P05177); assay: Direct and time-dependent CYP1A2 inhibition in pooled human liver microsomes; details: pooled HLM, substrate Phenacetin 50 μM
# T1 construct: evaluated in pooled human liver microsomes (HLM); from tissue; host or cells: pooled human liver microsomes
# T1 sequence (P05177 whole entry): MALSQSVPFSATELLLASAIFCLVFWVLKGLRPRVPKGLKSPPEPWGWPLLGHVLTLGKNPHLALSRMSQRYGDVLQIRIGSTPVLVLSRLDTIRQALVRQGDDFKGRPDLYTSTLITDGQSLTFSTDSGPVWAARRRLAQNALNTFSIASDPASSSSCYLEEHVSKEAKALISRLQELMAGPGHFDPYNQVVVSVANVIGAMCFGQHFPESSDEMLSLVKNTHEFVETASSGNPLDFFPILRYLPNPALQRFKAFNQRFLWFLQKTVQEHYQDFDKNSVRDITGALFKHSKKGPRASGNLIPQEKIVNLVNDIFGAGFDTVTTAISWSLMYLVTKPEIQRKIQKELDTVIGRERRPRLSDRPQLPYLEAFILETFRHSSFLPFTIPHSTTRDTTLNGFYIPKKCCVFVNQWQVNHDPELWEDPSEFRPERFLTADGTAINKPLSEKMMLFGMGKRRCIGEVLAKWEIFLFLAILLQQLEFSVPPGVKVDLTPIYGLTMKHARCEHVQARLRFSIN
# Experimental: The induction potential of Compound A on CYP enzymes was assessed in cryopreserved human hepatocytes from three donors. Following treatment for with Compound A at concentrations of 0.03-30 μM for 48 hours, mRNA levels for CYP1A2, 2B6, 2C8, 2C9, 2C19, and 3A4 were determined by semiquantitative real-time polymerase chain reaction (PCR). Test article concentrations during 24-hour incubation were determined. The potential of Compound A to cause direct and time-dependent inhibition (TDI) of the activities of CYP1A2, 2B6, 2C8, 2C9, 2C19, 2D6, and 3A4 was evaluated in pooled human liver microsomes (HLM) at 0.2-15 μM. Probe substrate concentrations around Km were used for direction inhibition and initial TDI assays. For TDI assay, Compound A was pre-incubated with pooled HLM with and without NADPH for 30 minutes prior to incubation with a single concentration of probe substrate.
# BCRP [3] = target: T2, BCRP (Homo sapiens, UniProt Q9UNQ0); assay: BCRP inhibition in inside-out membrane vesicles from HEK293; set-up: expressed in transfected cells; host or cells: HEK293 (inside-out membrane vesicles); details: substrate Rosuvastatin (1 μM)
# T2 sequence (Q9UNQ0 1-655): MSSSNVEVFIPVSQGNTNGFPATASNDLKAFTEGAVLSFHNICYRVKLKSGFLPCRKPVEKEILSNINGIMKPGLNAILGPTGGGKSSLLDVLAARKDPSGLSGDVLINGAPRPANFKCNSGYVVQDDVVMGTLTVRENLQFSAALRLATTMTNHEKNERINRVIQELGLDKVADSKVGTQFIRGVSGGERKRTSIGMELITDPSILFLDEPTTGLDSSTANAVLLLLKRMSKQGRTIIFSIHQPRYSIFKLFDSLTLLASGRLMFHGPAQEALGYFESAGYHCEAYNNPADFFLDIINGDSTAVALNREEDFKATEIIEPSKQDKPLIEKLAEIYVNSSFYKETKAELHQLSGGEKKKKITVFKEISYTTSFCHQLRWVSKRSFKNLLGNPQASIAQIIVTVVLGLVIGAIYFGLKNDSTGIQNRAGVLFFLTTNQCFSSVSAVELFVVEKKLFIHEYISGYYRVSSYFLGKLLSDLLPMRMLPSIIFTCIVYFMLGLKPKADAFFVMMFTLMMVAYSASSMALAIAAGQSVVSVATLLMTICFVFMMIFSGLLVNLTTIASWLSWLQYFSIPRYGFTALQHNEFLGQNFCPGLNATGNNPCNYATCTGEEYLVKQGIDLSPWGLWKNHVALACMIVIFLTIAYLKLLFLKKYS
# Experimental: as §1, §2
# BCRP [4] = target: T2, BCRP; assay: BCRP inhibition, bidirectional transport in BCRP-expressed MDCKII monolayers; set-up: expressed in transfected cells; host or cells: MDCKII
# Experimental: as §1, §2
# Chain of Pgp (P08183 whole entry): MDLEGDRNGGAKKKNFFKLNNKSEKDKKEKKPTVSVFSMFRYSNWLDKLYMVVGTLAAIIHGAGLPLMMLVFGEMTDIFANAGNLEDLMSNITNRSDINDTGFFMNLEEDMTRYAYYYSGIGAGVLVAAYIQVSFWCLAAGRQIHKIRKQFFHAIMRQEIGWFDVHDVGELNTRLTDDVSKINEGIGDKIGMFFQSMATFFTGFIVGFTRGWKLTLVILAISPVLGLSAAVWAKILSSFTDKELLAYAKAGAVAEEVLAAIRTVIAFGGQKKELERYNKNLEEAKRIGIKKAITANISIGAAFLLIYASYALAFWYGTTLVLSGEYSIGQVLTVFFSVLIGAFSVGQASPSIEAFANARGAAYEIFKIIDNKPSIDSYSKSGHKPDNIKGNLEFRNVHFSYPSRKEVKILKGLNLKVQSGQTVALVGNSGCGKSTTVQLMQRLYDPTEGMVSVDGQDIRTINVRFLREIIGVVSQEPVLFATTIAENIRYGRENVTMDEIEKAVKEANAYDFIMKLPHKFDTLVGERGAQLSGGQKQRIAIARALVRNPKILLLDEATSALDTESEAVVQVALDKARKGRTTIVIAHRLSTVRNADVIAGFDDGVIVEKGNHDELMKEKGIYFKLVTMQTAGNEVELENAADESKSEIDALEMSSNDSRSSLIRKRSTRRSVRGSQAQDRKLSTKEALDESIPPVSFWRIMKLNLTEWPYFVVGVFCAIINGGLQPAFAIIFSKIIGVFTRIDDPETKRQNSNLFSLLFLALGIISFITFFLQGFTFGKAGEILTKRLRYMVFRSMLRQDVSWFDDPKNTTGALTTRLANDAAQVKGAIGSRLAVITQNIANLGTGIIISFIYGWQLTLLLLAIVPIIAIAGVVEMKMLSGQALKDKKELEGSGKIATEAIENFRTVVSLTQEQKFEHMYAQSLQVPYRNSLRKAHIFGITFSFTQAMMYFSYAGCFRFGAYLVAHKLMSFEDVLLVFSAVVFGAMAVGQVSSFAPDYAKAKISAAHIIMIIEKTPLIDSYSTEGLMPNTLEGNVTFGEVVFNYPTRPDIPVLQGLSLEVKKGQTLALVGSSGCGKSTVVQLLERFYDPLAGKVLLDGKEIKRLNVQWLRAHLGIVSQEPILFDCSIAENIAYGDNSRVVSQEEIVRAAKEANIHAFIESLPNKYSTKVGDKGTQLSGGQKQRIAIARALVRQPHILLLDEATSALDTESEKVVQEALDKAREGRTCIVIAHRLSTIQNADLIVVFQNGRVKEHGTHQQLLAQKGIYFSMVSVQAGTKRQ
smiles,measurement,setting,value
"COc1cc(O[C@H]2C(C)(C)[C@H](NC(=O)c3ccc(N4CCC(CN5CCN(c6ccc(C(=O)N[C@H]7CCC(=O)NC7=O)c(F)c6)CC5)CC4)cc3)C2(C)C)ccc1C#N [Compound A, 4-(4-((1-(4-(((1R,3R)-3-(4-cyano-3-methoxyphenoxy)-2,2,4,4-tetramethylcyclobutyl)carbamoyl)phenyl)piperidin-4-yl)methyl)piperazin-1-yl)-N—((S)-2,6-dioxopiperidin-3-yl)-2-fluorobenzamide]",Pgp inhibition in the MDCKII bidirectional assays,Pgp; MDCKII bidirectional assays,not observed
same,inhibition at 5 µM,"Pgp; Pgp-expressed MDCKII cell monolayers, probe Digoxin (5 μM), Pgp, Monolayers, substrate Digoxin (5 μM), read-out: Maximal % Inhibition",< 20%
same,IC50,"Pgp; Pgp, Monolayers, substrate Digoxin (5 μM)",> 5 µM
same,"CYP3A4 mRNA induction, % PC",CYP3A4 mRNA; Donor 1,5 % PC
same,CYP3A4 mRNA Fold induction,CYP3A4 mRNA; Donor 1,8.8 Fold
same,"CYP3A4 mRNA induction, % PC",CYP3A4 mRNA; Donor 2,6 % PC
same,CYP3A4 mRNA Fold induction,CYP3A4 mRNA; Donor 2,2.5 Fold
same,"CYP3A4 mRNA induction, % PC",CYP3A4 mRNA; Donor 3,5 % PC
same,CYP3A4 mRNA Fold induction,CYP3A4 mRNA; Donor 3,3.3 Fold
same,"CYP3A4 mRNA induction, % of positive control response","CYP3A4 mRNA; all three donors, at 0.1-0.3 μM",4-6%
same,fold induction at 48 h,"CYP3A4 mRNA; human, cryopreserved human hepatocytes, all three donors, at 0.1-0.3 μM, read-out: Maximal fold induction in CYP3A4 mRNA",2.5 to 8.8
same,"% Parent at 0 Min, HP at 360 min",[1],77.0%
same,Major metabolic pathway,[2],hydrolysis (M825/1)
same,CYP2C19 mRNA Fold induction,"CYP2C19 mRNA; Donor 1, 0.03-30 μM",<2 Fold
same,CYP2C19 mRNA Fold induction,"CYP2C19 mRNA; Donor 2, 0.03-30 μM",<2 Fold
same,CYP2C19 mRNA Fold induction,"CYP2C19 mRNA; Donor 3, 0.03-30 μM",<2 Fold
same,IC50,"CYP1A2; read-out: IC50, 30 min Pre-incubation",> 15 µM
same,IC50,"CYP1A2; read-out: IC50, No Pre-incubation",> 15 µM
same,inhibition at 1 µM,"BCRP [3]; human, probe Rosuvastatin (1 μM), read-out: Maximal % Inhibition",95%
same,IC50,BCRP [3],0.21 µM
same,inhibition at 1 µM,"BCRP [4]; BCRP-expressed MDCKII cell monolayers, probe Prazosin (1 μM), Monolayers, substrate Prazosin (1 μM), read-out: Maximal % Inhibition",54%
same,IC50,BCRP [4]; monolayer assays,1.55 µM
